Measurements as given in ChEMBL document CHEMBL2163222 (J Med Chem, 2012).
Activity calls are given as the source filed them. The rule behind the calls is not given here.

Legend:
[1] = test system: SR; experiment: Growth inhibition of human SR cells at 10 uM by NCI-60 cell inhibition assay; assay type: functional; details: read-out: GI
[2] = test system: OVCAR-5; experiment: Growth inhibition of human OVCAR5 cells at 10 uM by NCI-60 cell inhibition assay; assay type: functional; details: read-out: GI
[3] = test system: HOP-62; experiment: Growth inhibition of human HOP62 cells at 10 uM by NCI-60 cell inhibition assay; assay type: functional; details: read-out: GI
[4] = test system: TK-10; experiment: Growth inhibition of human TK10 cells at 10 uM by NCI-60 cell inhibition assay; assay type: functional; details: read-out: GI
[5] = Inhibition of eIF2 protein expression in human Hs683 cells at 0.5 uM after 4 hrs by Western blotting method; assay type: functional, cell-based; details: Hs 683
[6] = test system: Hs 683; experiment: cells; details: Homo sapiens, Hs 683, 72 h
[7] = test system: ACHN; experiment: Growth inhibition of human ACHN cells at 10 uM by NCI-60 cell inhibition assay; assay type: functional; details: read-out: GI
[8] = test system: CCRF-CEM; experiment: Growth inhibition of human CCRF-CEM cells at 10 uM by NCI-60 cell inhibition assay; assay type: functional; details: read-out: GI
[9] = test system: NCI-H23; experiment: Growth inhibition of human NCI-H23 cells at 10 uM by NCI-60 cell inhibition assay; assay type: functional; details: read-out: GI
[10] = organism: Mus musculus; experiment: Toxicity in mouse assessed as drug tolerance; assay type: organism-based; details: in vivo
[11] = test system: SF-539; experiment: Growth inhibition of human SF539 cells at 10 uM by NCI-60 cell inhibition assay; assay type: functional; details: read-out: GI
[12] = Solubility of compound at pH 7.4; assay type: physicochemical; details: buffer, read-out: solubility
[13] = test system: SNB-19; experiment: Growth inhibition of human SNB19 cells at 10 uM by NCI-60 cell inhibition assay; assay type: functional; details: read-out: GI
[14] = test system: M14; experiment: Growth inhibition of human M14 cells at 10 uM by NCI-60 cell inhibition assay; assay type: functional; details: read-out: GI
[15] = Growth inhibition of human OE21 cells after 3 days by MTT assay; assay type: functional, cell-based; details: OE21, 72 h
[16] = test system: U-373MG ATCC; experiment: Inhibition of eIF2 activity in human U373 cells at 0.5 uM after 4 hrs by Western blotting method; assay type: functional, cell-based
[17] = cells; details: Homo sapiens, U373 MG, 72 h
[18] = test system: T47D; experiment: Growth inhibition of human T47D cells at 10 uM by NCI-60 cell inhibition assay; assay type: functional; details: read-out: GI
[19] = test system: SF-268; experiment: Growth inhibition of human SF268 cells at 10 uM by NCI-60 cell inhibition assay; assay type: functional; details: read-out: GI
[20] = test system: LOX IMVI; experiment: Growth inhibition of human LOXIMVI cells at 10 uM by NCI-60 cell inhibition assay; assay type: functional; details: read-out: GI
[21] = test system: SK-MEL-28; experiment: Growth inhibition of human SK-MEL-28 cells at 10 uM by NCI-60 cell inhibition assay; assay type: functional; details: read-out: GI
[22] = test system: NCI-H460; experiment: Growth inhibition of human NCI-H460 cells at 10 uM by NCI-60 cell inhibition assay; assay type: functional; details: read-out: GI
[23] = Cytostatic activity in human U373 cells at 0.4 uM assessed global growth ratio after 72 hrs by quantitative video microscopy; assay type: functional, U-373MG ATCC
[24] = Growth inhibition of human NCI-ADR-RES cells at 10 uM by NCI-60 cell inhibition assay; assay type: functional; details: read-out: GI
[25] = test system: MDA-MB-468; experiment: Growth inhibition of human MDA-MB-468 cells at 10 uM by NCI-60 cell inhibition assay; assay type: functional; details: read-out: GI
[26] = test system: A549; experiment: Growth inhibition of human A549/ATCC cells at 10 uM by NCI-60 cell inhibition assay; assay type: functional; details: read-out: GI
[27] = test system: SNB-75; experiment: Growth inhibition of human SNB75 cells at 10 uM by NCI-60 cell inhibition assay; assay type: functional; details: read-out: GI
[28] = test system: U-251; experiment: Growth inhibition of human U251 cells at 10 uM by NCI-60 cell inhibition assay; assay type: functional; details: read-out: GI
[29] = test system: MDA-MB-231; experiment: Growth inhibition of human MDA-MB-231 cells at 10 uM by NCI-60 cell inhibition assay; assay type: functional; details: read-out: GI
[30] = test system: UO-31; experiment: Growth inhibition of human UO31 cells at 10 uM by NCI-60 cell inhibition assay; assay type: functional; details: read-out: GI
[31] = test system: BT-549; experiment: Growth inhibition of human BT549 cells at 10 uM by NCI-60 cell inhibition assay; assay type: functional; details: read-out: GI
[32] = Stability in cell culture medium without serum assessed as compound recovery after 72 hrs; assay type: physicochemical; details: read-out: Stability
[33] = test system: HCT-116; experiment: Growth inhibition of human HCT116 cells at 10 uM by NCI-60 cell inhibition assay; assay type: functional; details: read-out: GI
[34] = test system: NCI-H322M; experiment: Growth inhibition of human NCI-H322M cells at 10 uM by NCI-60 cell inhibition assay; assay type: functional; details: read-out: GI
[35] = test system: SF-295; experiment: Growth inhibition of human SF295 cells at 10 uM by NCI-60 cell inhibition assay; assay type: functional; details: read-out: GI
[36] = test system: HCC 2998; experiment: Growth inhibition of human HCC2998 cells at 10 uM by NCI-60 cell inhibition assay; assay type: functional; details: read-out: GI
[37] = test system: HL-60(TB); experiment: Growth inhibition of human HL-60(TB) cells at 10 uM by NCI-60 cell inhibition assay; assay type: functional; details: read-out: GI
[38] = test system: MOLT-4; experiment: Growth inhibition of human MOLT4 cells at 10 uM by NCI-60 cell inhibition assay; assay type: functional; details: read-out: GI
[39] = test system: UACC-257; experiment: Growth inhibition of human UACC257 cells at 10 uM by NCI-60 cell inhibition assay; assay type: functional; details: read-out: GI
[40] = test system: SW-620; experiment: Growth inhibition of human SW620 cells at 10 uM by NCI-60 cell inhibition assay; assay type: functional; details: read-out: GI
[41] = test system: MDA-MB-435; experiment: Growth inhibition of human MDA-MB-435 cells at 10 uM by NCI-60 cell inhibition assay; assay type: functional; details: read-out: GI
[42] = Growth inhibition of human […] cells at 10 uM by NCI-60 cell inhibition assay; assay type: functional; details: read-out: GI
[43] = test system: K562; experiment: Growth inhibition of human K562 cells at 10 uM by NCI-60 cell inhibition assay; assay type: functional; details: read-out: GI
[44] = test system: HT-29; experiment: Growth inhibition of human HT-29 cells at 10 uM by NCI-60 cell inhibition assay; assay type: functional; details: read-out: GI
[45] = test system: SK-MEL-5; experiment: Growth inhibition of human SK-MEL-5 cells at 10 uM by NCI-60 cell inhibition assay; assay type: functional; details: read-out: GI
[46] = test system: T98G; experiment: cells; details: Homo sapiens, 72 h
[47] = Growth inhibition of human Hs 578T cells at 10 uM by NCI-60 cell inhibition assay; assay type: functional; details: read-out: GI
[48] = test system: Malme-3M; experiment: Growth inhibition of human MALME-3M cells at 10 uM by NCI-60 cell inhibition assay; assay type: functional; details: read-out: GI
[49] = test system: HCT-15; experiment: Growth inhibition of human HCT15 cells at 10 uM by NCI-60 cell inhibition assay; assay type: functional; details: read-out: GI
[50] = test system: SK-MEL-2; experiment: Growth inhibition of human SK-MEL-2 cells at 10 uM by NCI-60 cell inhibition assay; assay type: functional; details: read-out: GI
[51] = test system: EKVX; experiment: Growth inhibition of human EKVX cells at 10 uM by NCI-60 cell inhibition assay; assay type: functional; details: read-out: GI
[52] = test system: NCI-H522; experiment: Growth inhibition of human NCI-H522 cells at 10 uM by NCI-60 cell inhibition assay; assay type: functional; details: read-out: GI

Cc1c2c(cc[n+]1Cc1ccccc1)c1ccc(OCc3ccccc3)cc1n2Cc1ccccc1.[Br-]
inhibition of growth at 10 µM [1]: -52.5%
inhibition of growth at 10 µM [2]: 13.5%
inhibition of growth at 10 µM [3]: -70.9%
inhibition of growth at 10 µM [4]: 11.8%
inhibition [5]: Active
IC50 [6]: 500 nM
inhibition of growth at 10 µM [7]: 8.54%
inhibition of growth at 10 µM [8]: -16.2%
inhibition of growth at 10 µM [9]: -12.2%
Activity [10]: Toxic
inhibition of growth at 10 µM [11]: -5.52%
solubility [12]: 461 µM
inhibition of growth at 10 µM [13]: -13.3%
inhibition of growth at 10 µM [14]: -87.9%
IC50 [15]: 1300 nM
inhibition [16]: Active
IC50 [17]: 440 nM
inhibition of growth at 10 µM [18]: -4.02%
inhibition of growth at 10 µM [19]: -90.4%
inhibition of growth at 10 µM [20]: -93.2%
inhibition of growth at 10 µM [21]: -56.5%
inhibition of growth at 10 µM [22]: -87.5%
Ratio [23]: 0.4
inhibition of growth at 10 µM [24]: 65%
inhibition of growth at 10 µM [25]: -42.3%
inhibition of growth at 10 µM [26]: 4.01%
inhibition of growth at 10 µM [27]: -18%
inhibition of growth at 10 µM [28]: -80.2%
inhibition of growth at 10 µM [29]: -85.1%
inhibition of growth at 10 µM [30]: -18.2%
inhibition of growth at 10 µM [31]: -90.4%
remaining at 72 h [32]: > 95%
inhibition of growth at 10 µM [33]: -95.6%
inhibition of growth at 10 µM [34]: -26.9%
inhibition of growth at 10 µM [35]: -69.2%
inhibition of growth at 10 µM [36]: -81.8%
inhibition of growth at 10 µM [37]: -54.1%
inhibition of growth at 10 µM [38]: -51%
inhibition of growth at 10 µM [39]: -0.65%
inhibition of growth at 10 µM [40]: -88.1%
inhibition of growth at 10 µM [41]: -93.8%
inhibition of growth at 10 µM [42]: -21.6%
inhibition of growth at 10 µM [43]: -25%
inhibition of growth at 10 µM [44]: -48.6%
inhibition of growth at 10 µM [45]: -99.4%
IC50 [46]: 480 nM
inhibition of growth at 10 µM [47]: -35.9%
inhibition of growth at 10 µM [48]: -73.6%
inhibition of growth at 10 µM [49]: 39.2%
inhibition of growth at 10 µM [50]: -36%
inhibition of growth at 10 µM [51]: -28.8%
inhibition of growth at 10 µM [52]: -47.1%

Cc1c2c(cc[n+]1Cc1ccccc1)c1ccc(OCC3CCCCC3)cc1n2CC1CCCCC1.[Br-]
inhibition of growth at 10 µM [1]: -57.6%
inhibition of growth at 10 µM [2]: -95.5%
inhibition of growth at 10 µM [3]: -95%
inhibition of growth at 10 µM [4]: -93.6%
inhibition [5]: inactive
IC50 [6]: 380 nM
inhibition of growth at 10 µM [7]: -100%
inhibition of growth at 10 µM [8]: -36.2%
inhibition of growth at 10 µM [9]: -76.7%
Activity [10]: Toxic
inhibition of growth at 10 µM [11]: -85.2%
solubility [12]: 123 µM
inhibition of growth at 10 µM [13]: -90.7%
inhibition of growth at 10 µM [14]: -84.6%
IC50 [15]: 420 nM
inhibition [16]: inactive
IC50 [17]: 370 nM
inhibition of growth at 10 µM [18]: -74.1%
inhibition of growth at 10 µM [19]: -98.7%
inhibition of growth at 10 µM [20]: -95.6%
inhibition of growth at 10 µM [21]: -95.8%
inhibition of growth at 10 µM [22]: -93.4%
Ratio [23]: 0.25
inhibition of growth at 10 µM [24]: 31.5%
inhibition of growth at 10 µM [25]: -86.6%
inhibition of growth at 10 µM [26]: -93.1%
inhibition of growth at 10 µM [27]: -87.3%
inhibition of growth at 10 µM [28]: -92.5%
inhibition of growth at 10 µM [29]: -92%
inhibition of growth at 10 µM [30]: -93.1%
inhibition of growth at 10 µM [31]: -91%
remaining at 72 h [32]: > 95%
inhibition of growth at 10 µM [33]: -98.3%
inhibition of growth at 10 µM [34]: -83.2%
inhibition of growth at 10 µM [35]: -92.8%
inhibition of growth at 10 µM [36]: -93.2%
inhibition of growth at 10 µM [37]: -53.4%
inhibition of growth at 10 µM [38]: -64.5%
inhibition of growth at 10 µM [39]: -92.4%
inhibition of growth at 10 µM [40]: -96.6%
inhibition of growth at 10 µM [41]: -84.9%
inhibition of growth at 10 µM [42]: -45.2%
inhibition of growth at 10 µM [43]: -45.9%
inhibition of growth at 10 µM [44]: -79%
inhibition of growth at 10 µM [45]: -100%
IC50 [46]: 160 nM
inhibition of growth at 10 µM [47]: -36.2%
inhibition of growth at 10 µM [48]: -70.3%
inhibition of growth at 10 µM [49]: -81.7%
inhibition of growth at 10 µM [50]: -86.5%
inhibition of growth at 10 µM [51]: -75.5%
inhibition of growth at 10 µM [52]: -84.5%
